Key:
H460 cells [1] = assay: Calcusyn drug combination (Alamar blue) in H460 cells; format: cell-based; conditions: HDAC inhibitor combined with seliciclib
A549 cells = conditions: A549 (value in parentheses), combined with seliciclib
Description: Experiments were carried out in 96-well plates and the cell lines seeded at a density of 2000/well for A549 and 3000/well for H460. […] Each HDAC inhibitor was then tested in combination with seliciclib using three different treatment regimes: concomitant, seliciclib pre-treatment followed by HDAC inhibitor and HDAC inhibitor pretreatment followed by seliciclib.
The drug concentrations selected were chosen to span the IC50 values for the drugs tested. In the pre-treatment regimes, the first drug was added 2 h after cells were plated, and left for 24 h. Medium was aspirated and replaced with fresh medium containing the second drug, and incubated for 72 h. The two controls for each sequential treatment involved substituting one of the drug treatments with medium.
Seliciclib was tested in combination with the indicated HDAC inhibitors in H460 and A549 cell lines, using three different treatment regimes. […] Data are the average of at least three independent experiments (Table 1).

H460 cells [2] = conditions: H460, 1×IC50; medium 24 h then seliciclib 24 h; FIG. 6
[3] = HDAC inhibitor 24 h then seliciclib 72 h
[4] = seliciclib 24 h then HDAC inhibitor 72 h

Row | Compound | Combination Index at ED50, HDAC inhibitor pretreatment (H460 cells [1]; [3]) | Combination Index at ED75, HDAC inhibitor pretreatment (H460 cells [1]; [3]) | Combination Index at ED90, HDAC inhibitor pretreatment (H460 cells [1]; [3]) | Combination Index at ED50, Concomitant treatment (H460 cells [1]; both drugs 72 h) | Combination Index at ED75, Concomitant treatment (H460 cells [1]; both drugs 72 h) | Combination Index at ED90, Concomitant treatment (H460 cells [1]; both drugs 72 h) | Combination Index at ED50, Seliciclib pretreatment (H460 cells [1]; [4]) | Combination Index at ED75, Seliciclib pretreatment (H460 cells [1]; [4]) | Combination Index at ED90, Seliciclib pretreatment (H460 cells [1]; [4]) | Combination Index at ED50, HDAC inhibitor pretreatment (A549 cells; [3]) | Combination Index at ED75, HDAC inhibitor pretreatment (A549 cells; [3]) | Combination Index at ED90, HDAC inhibitor pretreatment (A549 cells; [3]) | Combination Index at ED50, Concomitant treatment (A549 cells; both drugs 72 h) | Combination Index at ED75, Concomitant treatment (A549 cells; both drugs 72 h) | Combination Index at ED90, Concomitant treatment (A549 cells; both drugs 72 h) | Combination Index at ED50, Seliciclib pretreatment (A549 cells; [4]) | Combination Index at ED75, Seliciclib pretreatment (A549 cells; [4]) | Combination Index at ED90, Seliciclib pretreatment (A549 cells; [4]) | overall cell cycle distribution (H460 cells [2])
1 | CCCC(=O)[O-].[Na+] [Butyrate, sodium butyrate] | 0.74 | 0.53 | 0.40 | 0.82 | 0.59 | 0.44 | 0.88 | 0.68 | 0.57 | 0.95 | 0.71 | 0.60 | 1.21 | 0.87 | 0.64 | 1.08 | 0.88 | 0.75 | –
2 | CCCC(CCC)C(=O)[O-].[Na+] [Sodium valproate, sodium 2-propylpentanoate] | – | – | 0.84 | – | – | 1.07 | – | – | 0.81 | – | – | – | – | – | – | – | – | – | –
3 | CC[C@H](CO)Nc1nc(NCc2ccccc2)c2ncn(C(C)C)c2n1 [seliciclib, 2-(1-R-hydroxymethylpropylamino)-6-benzylamino-9-isopropylpurine] | – | – | – | – | – | – | – | – | – | – | – | – | – | – | – | – | – | – | no significant impact

Reference: US20090306098A1 (Cyclacel Limited, priority 2005, published 2009)
